Assay results: patent US12145947B2, “Pyrimidine based modulators and uses thereof” (Quanta Therapeutics, Inc., priority 2022, dated 2024)

Tests used:
KRAS G12D/RAF1 = target: T1, KRAS G12D/RAF1 (Homo sapiens, UniProt P01116, G12D); test: Protein-protein interaction (PPI) HTRF assay KRAS G12D/RAF1; type: binding; settings: Table 4
T1 construct: His6-MBP (N, cleaved yes); made in house; host or cells: E. coli
Outline: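 Biotinylated human KRAS (1-169; wt, G12D, G12V) or wt NRAS, GppNHp-loaded, pre-incubated 30 min RT with compound and streptavidin-d2, then His-RAF1 RBD (52-131) with anti-6His Tb cryptate added for 1 h RT. HTRF 665/615 ratio normalized to no compound (0%) and untagged RAF1 (100%); IC50.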

[1] = test system: AGS cells (KRAS G12D), phospho-ERK; test: pERK In Cell Western (ICW) assay (Method B), AGS cells; type: cell-based; settings: Homo sapiens, Table 4, pERK, 3 hours, read-out: ICW-AGS
Outline: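 GP2D (10,000 cells/well) and AGS (5,000 cells/well) cells were treated for 3 h at 37 °C with a 10-point, ½-log dilution series (top […]). They were then fixed and immunostained for phospho-ERK. pERK signal was normalised to DRAQ5 and expressed as % of DMSO, with IC50 from a 4-parameter fit.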

T1 sequence (P01116 with tags, fused parts or gaps isoform P01116-2 G12D): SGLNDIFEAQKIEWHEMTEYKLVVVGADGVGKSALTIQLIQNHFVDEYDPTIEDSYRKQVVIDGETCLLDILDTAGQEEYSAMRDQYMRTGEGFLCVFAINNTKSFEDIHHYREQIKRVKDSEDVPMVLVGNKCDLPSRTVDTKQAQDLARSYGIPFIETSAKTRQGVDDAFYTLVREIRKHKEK

Compound: CN(C)CC1(COc2nc(N3CCCn4nc(C(=O)N(C)C)c(Cl)c4C3)c(C#N)c(N3CC4(CCc5sc(N)c(C#N)c54)C3)n2)CC1(F)F (centres unmarked) [Compound 87, 5-[6-(2-amino-3-cyano-spiro[5,6-dihydrocyclopenta[b]thiophene-4,3′-azetidine]-1′-yl)-5-cyano-2-[[1-[(dimethylamino)methyl]-2,2-difluoro-cyclopropyl]methoxy]pyrimidin-4-yl]-3-chloro-N,N-dimethyl-4,6,7,8-tetrahydropyrazolo[1,5-a][1,4]diazepine-2-carboxamide]
- IC50 (KRAS G12D/RAF1): 1 to 10 µM
- IC50 [1]: 0.01 to 0.1 µM

Compound: Cn1c(-c2nn3c(c2Cl)CN(c2nc(OC[C@@]45CCCN4C[C@H](F)C5)nc(N4CC5(CCc6sc(N)c(C#N)c65)C4)c2C#N)CCC3)nc2c(F)cccc21 [Compound 32, 2-amino-1′-[6-[3-chloro-2-(4-fluoro-1-methyl-benzimidazol-2-yl)-4,6,7,8-tetrahydropyrazolo[1,5-a][1,4]diazepin-5-yl]-5-cyano-2-[[(2R,8S)-2-fluoro-1,2,3,5,6,7-hexahydropyrrolizin-8-yl]methoxy]pyrimidin-4-yl]spiro[5,6-dihydrocyclopenta[b]thiophene-4,3′-azetidine]-3-carbonitrile]
- IC50 (KRAS G12D/RAF1): 10 to 100 µM
- IC50 [1]: 0.1 to 1 µM

Compound: CN(CCOc1nc(N2C[C@H]3CC[C@@H](C2)N3)c(C#N)c(N2CC3(CCc4sc(N)c(C#N)c43)C2)n1)C1CCC1 [Compound 48, 2-amino-1′-[5-cyano-2-[2-[cyclobutyl(methyl)amino]ethoxy]-6-[(1R,5S)-3,8-diazabicyclo[3.2.1]octan-3-yl]pyrimidin-4-yl]spiro[5,6-dihydrocyclopenta[b]thiophene-4,3′-azetidine]-3-carbonitrile]
- IC50 (KRAS G12D/RAF1): 10 to 100 µM
- IC50 [1]: 1 to 10 µM

Compound: CN(C)C(=O)c1cc2n(n1)CCCN(c1nc(OC[C@@]34CCCN3C[C@H](F)C4)nc(N3CC4(CCc5sc(N)c(C#N)c54)C3)c1C#N)C2 [Compound 8, 5-[6-(2-amino-3-cyano-spiro[5,6-dihydrocyclopenta[b]thiophene-4,3′-azetidine]-1′-yl)-5-cyano-2-[[(2R,8S)-2-fluoro-1,2,3,5,6,7-hexahydropyrrolizin-8-yl]methoxy]pyrimidin-4-yl]-N,N-dimethyl-4,6,7,8-tetrahydropyrazolo[1,5-a][1,4]diazepine-2-carboxamide]
- IC50 (KRAS G12D/RAF1): 1 to 10 µM
- IC50 [1]: 0.01 to 0.1 µM

Compound: CN(C)CC1(COc2nc(N3C[C@H]4CC[C@@H](C3)N4)c(C#N)c(N3CC4(CCc5sc(N)c(C#N)c54)C3)n2)COC1 [Compound 52, 2-amino-1′-[5-cyano-6-[(1R,5S)-3,8-diazabicyclo[3.2.1]octan-3-yl]-2-[[3-[(dimethylamino)methyl]oxetan-3-yl]methoxy]pyrimidin-4-yl]spiro[5,6-dihydrocyclopenta[b]thiophene-4,3′-azetidine]-3-carbonitrile]
- IC50 (KRAS G12D/RAF1): 0.1 to 1 µM
- IC50 [1]: 0.1 to 1 µM

Compound: N#Cc1c(N2C[C@H]3CC[C@@H](C2)N3)nc(OCC2(CN3CCOCC3)CC2)nc1N1CC2(CCc3sc(N)nc32)C1 [Compound 23, 4-(2-aminospiro[5,6-dihydrocyclopenta[d]thiazole-4,3′-azetidine]-1′-yl)-2-[[1-(morpholinomethyl)cyclopropyl]methoxy]-6-[(1R,5S)-3,8-diazabicyclo[3.2.1]octan-3-yl]pyrimidine-5-carbonitrile]
- IC50 (KRAS G12D/RAF1): 1 to 10 µM
- IC50 [1]: 0.1 to 1 µM

Compound: Cn1c(-c2nn3c(c2Cl)CN(c2nc(OC[C@@]45CCCN4C[C@H](F)C5)nc(N4CC5(CCc6sc(N)c(C#N)c65)C4)c2C#N)CCC3)nc2ccccc21 [Compound 30]
- IC50 (KRAS G12D/RAF1): 10 to 100 µM
- IC50 [1]: 0.1 to 1 µM
